Source: patent US6482805B2 (Parker Hughes Institute, priority 1998, dated 2002)
Where two headings read alike, the source gives them in different places.

What was measured:
human sperm = assay: Sperm motility assay by CASA (Example 1); type: cell-based; conditions: for EC50: read-out: EC50, sperm motility
Protocol: All donor specimens were obtained after informed consent and in compliance with the guidelines of the Wayne Hughes Institute Institutional Review Board. Motile sperm (≧10×10^6/ml), were suspended in 0.5 ml of Biggers, Whitten, and Whittingam's medium (BWW) containing 25 mM HEPES (Irvine Scientific, Santa Ana, Calif.), and 0.3% bovine serum albumin (BSA; Fraction V, Sigma Chemical Co, St. Louis, Mo.) in the presence and absence of serial two-fold dilutions of test substance (300 μM to 4.6 μm) in 1% DMSO. The stock solutions of synthetic WHI compounds were prepared in DMSO (10 mg/ml) and diluted in DMSO to yield the desired concentrations. Corresponding volume of DMSO (1%) was added to control tubes. N-9 was diluted in BWW-0.3% BSA (pH 7.4) to yield the desired concentrations (4.6 to 300 μM). After 3 hours of incubation at 37° C., the percentage of motile sperm was evaluated by computer-assisted sperm analysis (CASA) as described [L. J. Burkman, Fertil. Steril. […] The percent motilities were compared with sham-treated control suspensions of motile sperm. […] Non-linear regression analyses were used to determine the EC50 values from the concentration effect curves using GraphPad PRISM software (San Diego, Calif.).
For evaluating sperm motion kinematics using CASA, 4 μl each of sperm suspension was loaded into two 20-μm Microcell chambers (Conception Technologies) that was placed onto a counting chamber at 37° C. At least 5-8 fields per chamber were scanned for analysis using a Hamilton Thorne Integrated Visual Optical System (IVOS), version 10 instrument (Hamilton Thorne Research Inc., Danvers, Mass.). Each field was recorded for 30 seconds. […] The performance of the analyzer was periodically checked using the play-back function. The attributes of sperm kinematic parameters evaluated included numbers of motile (MOT) and progressively (PRG) motile sperm; curvilinear velocity (VCL; a measure of the total distance traveled by a given sperm during the acquisition divided by the time elapsed); average path velocity (VAP; the spatially averaged path that eliminates the wobble of the sperm head), straight line velocity (VSL; the straight-line distance from beginning to end of track divided by time taken), beat cross frequency (BCF, frequency of sperm head crossing sperm average path), the amplitude of lateral head displacement (ALH; the mean width of sperm head oscillation) and the derivatives, straightness ([…]); linearity (LIN=100×VSL/VCL; departure of sperm track from a straight line). Data from each individual cell track were recorded and analyzed. At least 200 motile sperm were analyzed for each aliquot sampled.

HIV-1 = assay: Anti-HIV-1 activity, p24 antigen assay in infected PBMC (Example 1); type: cell-based; conditions: for IC50: read-out: IC50, HIV-1 replication (p24 antigen)
Protocol: Subsequently, cells were cultured in 96-well microtiter plates (100 μl/well; 2×10^6/ml, triplicate wells) in the presence and absence of various concentrations (0.00 μM to 100 μM) of drugs for 7 days. Aliquots of culture supernatants were removed from the wells on the 7th day after infection for p24 antigen enzyme immunoassay as an indication of viral replication. Erice et al. Antimicrob. Agents and Chemother. […] Agents and Chemother. […] Percent inhibition of virus replication was calculated by comparing the p24 antigen values from the test drug-treated infected cells with p24 antigen values from untreated infected cells. […] Cell viability was quantified by a colorimetric […] assay. F. M. Uckun et al., Antimicrob. Agents and Chemother.

[1] = 3 hours incubation at 37° C., CASA

With “5-Bromo-6-methoxy-5,6-dihydro-3′-azidothymidine 5′-[Phenyl methoxyalaninyl phosphate] [WHI-04]” the “spermicidal activity, in words” value (human sperm; compared with related derivatives) was “improved spermicidal activity over WHI-01”.

With “5-Bromo-6-methoxy-5,6-dihydro-3′-azidothymidine-5′-[(p-Fluorophenyl methoxyalaninyl phosphate] [WHI-06]” the EC50 (human sperm; [1]) was 15 µM.

With “5-bromo-6-methoxy-5,6-dihydro-3 ′-azidothymidine-5 ′-(p-methoxyphenyl) methoxyalaninyl phosphate [WHI-05]” the IC50 (HIV-1; human peripheral blood mononuclear cells, 7 days) was 0.05 µM and the EC50 (human sperm; [1]) was 29 µM.

For CCCCCCCCCc1ccc(OCCOCCOCCOCCOCCOCCOCCOCCOCCO)cc1 [Compound N-9, nonoxynol-9, reference compound], the IC50 (HIV-1; Human immunodeficiency virus 1, PBMC, 168 h, human peripheral blood mononuclear cells, 7 days) was 2.19 µM and the EC50 (human sperm; Homo sapiens, Sperm, 3 hours incubation at 37° C., CASA) was 81 µM.

For COC(=O)C(C)NP(=O)(OCC1OC(N2C(=O)NC(=O)C(C)(Br)C2OC)CC1N=[N+]=[N-])Oc1ccc(Br)cc1 (stereo not drawn) [WHI-07, 5-Bromo-6-methoxy-5,6-dihydro-3′-azidothymidine-5′-(p-Bromophenyl Methoxyalaninyl Phosphate)], the IC50 (HIV-1; Human immunodeficiency virus 1, PBMC, 168 h) was 0.005 µM, the “anti-HIV potency relative to N-9” value (HIV-1; ratio of IC50 values) was 439 fold and the EC50 (human sperm; Homo sapiens, Sperm, 3 h) was 6 µM.
